According to PubChem BioAssay (NCI):
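Results reflect a 48-hour exposure of cells in 96-well plates to compound at five concentrations. The concentration for 50% growth inhibition is given as GI50. TGI marks complete inhibition of growth.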

What was measured:
Assay in all cases: growth of human tumour cells (NCI), 48 h
[1] = test system: SF-268 CNS
[2] = test system: SK-MEL-2 melanoma
[3] = test system: 786-0 renal
[4] = test system: UACC-62 melanoma
[5] = test system: MALME-3M melanoma
[6] = test system: HOP-62 NSCLC
[7] = test system: CCRF-CEM leukemia
[8] = test system: OVCAR-5 ovarian
[9] = test system: MOLT-4 leukemia
[10] = test system: MDA-MB-435
[11] = test system: SNB-75 CNS
[12] = test system: SK-OV-3 ovarian
[13] = test system: SK-MEL-5 melanoma
[14] = test system: K-562 leukemia
[15] = test system: SW-620 colon
[16] = test system: RPMI-8226 leukemia
[17] = test system: IGROV1 ovarian
[18] = test system: OVCAR-4 ovarian
[19] = test system: NCI/ADR-RES ovarian
[20] = test system: CAKI-1 renal
[21] = test system: RXF 393 renal
[22] = test system: NCI-H460 lung
[23] = test system: T-47D breast
[24] = test system: SK-MEL-28 melanoma
[25] = test system: NCI-H23 lung
[26] = test system: U251 CNS
[27] = test system: M14 melanoma
[28] = test system: COLO 205 colon
[29] = test system: A549 NSCLC
[30] = test system: SR leukemia
[31] = test system: MCF7 breast
[32] = test system: ACHN renal
[33] = test system: KM12 colon
[34] = test system: MDA-MB-231 breast
[35] = test system: SNB-19 CNS
[36] = test system: NCI-H522 lung
[37] = test system: TK-10 renal
[38] = test system: HCT-116 colon
[39] = test system: DU-145 prostate
[40] = test system: A498 renal
[41] = test system: HCC-2998 colon
[42] = test system: NCI-H226 lung
[43] = test system: HL-60(TB) leukemia
[44] = test system: UACC-257 melanoma
[45] = test system: HCT-15 colon
[46] = test system: OVCAR-8 ovarian
[47] = test system: LOX IMVI melanoma
[48] = test system: SN12C renal
[49] = test system: SF-539 CNS
[50] = test system: HS 578T breast
[51] = test system: EKVX NSCLC
[52] = test system: SF-295 CNS
[53] = test system: HT29 colon
[54] = test system: HOP-92 NSCLC
[55] = test system: OVCAR-3 ovarian
[56] = test system: UO-31 renal
[57] = test system: PC-3 prostate

Question: Which TGI [1] does the source give for `COc1cc2ccc3ccncc3c2cc1OC` here?
Answer: > 10 µM

Question: And the TGI [2]?
Answer: > 10 µM

Question: And the TGI [3]?
Answer: > 10 µM

Question: What about the TGI [4] of the same compound?
Answer: > 10 µM

Question: And the TGI [5]?
Answer: > 10 µM

Question: What about the TGI [6] of the same compound?
Answer: > 10 µM

Question: And the TGI [7]?
Answer: > 10 µM

Question: What about the TGI [8] of the same compound?
Answer: > 10 µM

Question: And the TGI [9]?
Answer: > 10 µM

Question: And the TGI [10]?
Answer: > 10 µM

Question: What about the TGI [11] of the same compound?
Answer: > 10 µM

Question: And the TGI [12]?
Answer: > 10 µM

Question: And the TGI [13]?
Answer: > 10 µM

Question: And the TGI [14]?
Answer: > 10 µM

Question: And the TGI [15]?
Answer: > 10 µM

Question: What about the TGI [16] of the same compound?
Answer: > 10 µM

Question: What about the TGI [17] of the same compound?
Answer: > 10 µM

Question: And the TGI [18]?
Answer: > 10 µM

Question: And the TGI [19]?
Answer: > 10 µM

Question: What about the TGI [20] of the same compound?
Answer: > 10 µM

Question: What about the TGI [21] of the same compound?
Answer: > 10 µM

Question: What about the TGI [22] of the same compound?
Answer: > 10 µM

Question: What about the TGI [23] of the same compound?
Answer: > 10 µM

Question: And the TGI [24]?
Answer: > 10 µM

Question: And the TGI [25]?
Answer: > 10 µM

Question: And the TGI [26]?
Answer: > 10 µM

Question: And the TGI [27]?
Answer: > 10 µM

Question: And the TGI [28]?
Answer: > 10 µM

Question: What about the TGI [29] of the same compound?
Answer: > 10 µM

Question: What about the TGI [30] of the same compound?
Answer: > 10 µM

Question: And the TGI [31]?
Answer: > 10 µM

Question: What about the TGI [32] of the same compound?
Answer: > 10 µM

Question: How did the GI50 [33] turn out when `Oc1ccc(Cl)cc1/C=N\NC(=S)N/N=C/c1cc(Cl)ccc1O` was run?
Answer: 2.68 µM

Question: What about the TGI [33] of the same compound?
Answer: 44.7 µM

Question: What about the GI50 [1] of the same compound?
Answer: 1.72 µM

Question: What about the TGI [1] of the same compound?
Answer: > 100 µM

Question: And the GI50 [2]?
Answer: 1.87 µM

Question: What about the TGI [2] of the same compound?
Answer: 10.1 µM

Question: What about the GI50 [34] of the same compound?
Answer: 1.84 µM

Question: And the TGI [34]?
Answer: 27.6 µM

Question: What about the GI50 [3] of the same compound?
Answer: 1.43 µM

Question: What about the TGI [3] of the same compound?
Answer: 4.52 µM

Question: What about the GI50 [4] of the same compound?
Answer: 1.74 µM

Question: What about the TGI [4] of the same compound?
Answer: 7.57 µM

Question: What about the GI50 [35] of the same compound?
Answer: 3.4 µM

Question: What about the TGI [35] of the same compound?
Answer: > 100 µM

Question: And the GI50 [36]?
Answer: 1.45 µM

Question: And the TGI [36]?
Answer: 5.15 µM

Question: And the GI50 [37]?
Answer: 2.68 µM

Question: And the TGI [37]?
Answer: 34.5 µM

Question: What about the GI50 [5] of the same compound?
Answer: 2.14 µM

Question: And the TGI [5]?
Answer: 52.7 µM

Question: What about the GI50 [6] of the same compound?
Answer: 2.47 µM

Question: What about the TGI [6] of the same compound?
Answer: > 100 µM

Question: What about the GI50 [7] of the same compound?
Answer: 0.468 µM

Question: What about the TGI [7] of the same compound?
Answer: 12.1 µM

Question: And the GI50 [8]?
Answer: 5.04 µM

Question: And the TGI [8]?
Answer: > 100 µM

Question: What about the GI50 [9] of the same compound?
Answer: 2.23 µM

Question: And the TGI [9]?
Answer: 7.62 µM

Question: And the GI50 [10]?
Answer: 3.74 µM

Question: What about the TGI [10] of the same compound?
Answer: > 100 µM

Question: What about the GI50 [11] of the same compound?
Answer: 6.35 µM

Question: What about the TGI [11] of the same compound?
Answer: > 100 µM

Question: What about the GI50 [38] of the same compound?
Answer: 1.42 µM

Question: What about the TGI [38] of the same compound?
Answer: 18.5 µM

Question: What about the GI50 [39] of the same compound?
Answer: 3.67 µM

Question: And the TGI [39]?
Answer: 70 µM

Question: What about the GI50 [40] of the same compound?
Answer: 2.36 µM

Question: What about the TGI [40] of the same compound?
Answer: 11.5 µM

Question: What about the GI50 [41] of the same compound?
Answer: 3.55 µM

Question: What about the TGI [41] of the same compound?
Answer: 86.8 µM

Question: What about the GI50 [13] of the same compound?
Answer: 1.34 µM

Question: What about the TGI [13] of the same compound?
Answer: 3.88 µM

Question: What about the GI50 [14] of the same compound?
Answer: 2.63 µM

Question: What about the TGI [14] of the same compound?
Answer: > 100 µM

Question: What about the GI50 [42] of the same compound?
Answer: 2.34 µM

Question: What about the TGI [42] of the same compound?
Answer: 14.1 µM

Question: And the GI50 [43]?
Answer: 1.37 µM

Question: What about the TGI [43] of the same compound?
Answer: 4.23 µM

Question: What about the GI50 [15] of the same compound?
Answer: 4.41 µM

Question: What about the TGI [15] of the same compound?
Answer: > 100 µM

Question: What about the GI50 [44] of the same compound?
Answer: 2.13 µM

Question: What about the TGI [44] of the same compound?
Answer: 7.49 µM

Question: And the GI50 [16]?
Answer: 3.45 µM

Question: And the TGI [16]?
Answer: 34.9 µM

Question: What about the GI50 [17] of the same compound?
Answer: 2.52 µM

Question: And the TGI [17]?
Answer: > 100 µM

Question: And the GI50 [45]?
Answer: 0.997 µM

Question: What about the TGI [45] of the same compound?
Answer: > 100 µM

Question: What about the GI50 [18] of the same compound?
Answer: 2.25 µM

Question: And the TGI [18]?
Answer: 50.3 µM

Question: And the GI50 [46]?
Answer: 1.92 µM

Question: What about the TGI [46] of the same compound?
Answer: 17.7 µM

Question: And the GI50 [47]?
Answer: 1.65 µM

Question: What about the TGI [47] of the same compound?
Answer: > 100 µM

Question: And the GI50 [19]?
Answer: 2.78 µM

Question: And the TGI [19]?
Answer: 32.8 µM

Question: And the GI50 [20]?
Answer: 1.24 µM

Question: What about the TGI [20] of the same compound?
Answer: 8.48 µM

Question: What about the GI50 [21] of the same compound?
Answer: 2.03 µM

Question: And the TGI [21]?
Answer: 6.83 µM

Question: What about the GI50 [22] of the same compound?
Answer: 2.58 µM

Question: What about the TGI [22] of the same compound?
Answer: 13.3 µM

Question: And the GI50 [23]?
Answer: 2.73 µM

Question: And the TGI [23]?
Answer: 73.4 µM

Question: And the GI50 [24]?
Answer: 4.58 µM

Question: And the TGI [24]?
Answer: > 100 µM

Question: And the GI50 [48]?
Answer: 3.12 µM

Question: What about the TGI [48] of the same compound?
Answer: 64.7 µM

Question: What about the GI50 [49] of the same compound?
Answer: 2.8 µM

Question: And the TGI [49]?
Answer: 90.8 µM

Question: And the GI50 [25]?
Answer: 4.61 µM

Question: What about the TGI [25] of the same compound?
Answer: 67.7 µM

Question: What about the GI50 [26] of the same compound?
Answer: 1.08 µM

Question: What about the TGI [26] of the same compound?
Answer: > 100 µM

Question: What about the GI50 [50] of the same compound?
Answer: 8.37 µM

Question: What about the TGI [50] of the same compound?
Answer: > 100 µM

Question: And the GI50 [51]?
Answer: 3.23 µM

Question: And the TGI [51]?
Answer: > 100 µM

Question: And the GI50 [28]?
Answer: 3.34 µM

Question: And the TGI [28]?
Answer: 41.6 µM

Question: And the GI50 [52]?
Answer: 3 µM

Question: What about the TGI [52] of the same compound?
Answer: > 100 µM

Question: What about the GI50 [29] of the same compound?
Answer: 3.75 µM

Question: And the TGI [29]?
Answer: > 100 µM

Question: What about the GI50 [30] of the same compound?
Answer: 1.22 µM

Question: What about the TGI [30] of the same compound?
Answer: 40.9 µM

Question: And the GI50 [53]?
Answer: 5.13 µM

Question: What about the TGI [53] of the same compound?
Answer: 54.4 µM

Question: And the GI50 [31]?
Answer: 3.82 µM

Question: And the TGI [31]?
Answer: > 100 µM

Question: What about the GI50 [54] of the same compound?
Answer: 1.92 µM

Question: And the TGI [54]?
Answer: 14.7 µM

Question: And the GI50 [32]?
Answer: 2.35 µM

Question: And the TGI [32]?
Answer: > 100 µM

Question: What about the GI50 [55] of the same compound?
Answer: 1.87 µM

Question: What about the TGI [55] of the same compound?
Answer: 11.7 µM

Question: And the GI50 [56]?
Answer: 1.05 µM

Question: What about the TGI [56] of the same compound?
Answer: 15.5 µM

Question: And the GI50 [57]?
Answer: 3.13 µM

Question: And the TGI [57]?
Answer: > 100 µM
